According to patent US10716806B2, “Solution of carbon monoxide for the treatment of disease, including sickle cell disease” (Children's Hospital Los Angeles, priority 2011, dated 2020):

Tests used:
[1] = cited from earlier work
[2] = cited from earlier work; remark: listed apart in the source
[3] = CO concentration achievable in aqueous composition (water) at given temperature and pressure; assay type: physicochemical
Source text: There are a number of significant limitations to using the delivery of CO dissolved in liquid and used through the GI tract or IV for therapeutic or prophylactic purposes. These limitations have been overcome in the present invention. The primary barrier to date has been delivering sufficient quantities of CO. The solubility of CO in aqueous solutions is low at room temperature and normal atmospheric pressure (ATM). Thus, using approaches previously proposed in the art, which rely on dissolving CO into an aqueous composition at room temperature and at atmospheric pressure, the volume of liquid necessary to deliver a therapeutic dose of CO is logistically prohibitive. However, using the present invention, therapeutically useful levels of CO can be achieved. Table 1 provides a summary of volumes necessary to achieve a therapeutic dose providing an average increase of […] CO-Hb, which provides an average CO-Hb level in the blood of about 7% on average without rising above 15% at any given time. The values are presented for SCD patients. Table 2 provides a similar summary of volumes necessary to treat patients having normal levels of Hb and normal lung function.
First, in the present invention, in particular as it relates to embodiments wherein aqueous compositions are involved, CO is dissolved in an aqueous liquid under higher than ambient pressure. The use of pressure to dissolve the CO increases the achievable concentration of CO in solution. […] Although raising the pressure above 10 ATM might not be commercially practicable, it is technologically feasible at this time. […]

Structure (SMILES): [C-]#[O+] [CO, carbon monoxide]
- half-life of the alpha-phase of CO in the human bloodstream [1]: 4 to 6 h
- CO-Hb level at which toxicity and side effects are routinely seen ([2]; generally recognized): over 20%
- CO-Hb level showing effectiveness at reducing SCC without significant deleterious side effects or toxicity ([2]; generally recognized): up to 15 % CO-Hb
- Hb saturation likely resulting in CO-induced death unless treatment is provided ([2]; reported (Stewart 1975)): over 67%
- Hb saturation resulting in loss of consciousness, among other serious morbidities ([2]; reported, can result in death if maintained long-term): over 30%
- CO Concentration Achievable in Aqueous Composition ([3]; 2° C., 1 ATM): 40 mg/L water
- CO Concentration in Aqueous Solution ([3]; 2° C., 1 ATM): 40 mg/L water
- CO Concentration Achievable in Aqueous Composition ([3]; 2° C., 2 ATM): 80 mg/L water
- CO Concentration in Aqueous Solution ([3]; 2° C., 2 ATM): 80 mg/L water
- CO Concentration Achievable in Aqueous Composition ([3]; 2° C., 3 ATM): 120 mg/L water
- CO Concentration in Aqueous Solution ([3]; 2° C., 3 ATM): 120 mg/L water
- CO Concentration Achievable in Aqueous Composition ([3]; 2° C., 5 ATM): 200 mg/L water
- CO Concentration in Aqueous Solution ([3]; 2° C., 5 ATM): 200 mg/L water
- CO Concentration Achievable in Aqueous Composition ([3]; 2° C., 10 ATM): 400 mg/L water
- CO Concentration in Aqueous Solution ([3]; 2° C., 10 ATM): 400 mg/L water
- CO Concentration Achievable in Aqueous Composition ([3]; 21° C., 1 ATM): 25 mg/L water
